These are literature values, as cited in patent US6900339B2, “Bryostatin composition and bryostatin acquisition methodologies” (The University of North Carolina at Chapel Hill, priority 2002, dated 2005).

The subject of this data set is leukemia. The conditions noted are these: background statement.

SMILES strings stand for the structures.

Turning to `CCC/C=C/C=C/C(=O)O[C@H]1/C(=C/C(=O)OC)C[C@H]2C[C@H]([C@@H](C)O)OC(=O)C[C@H](O)C[C@@H]3C[C@H](OC(C)=O)C(C)(C)[C@](O)(C[C@@H]4C/C(=C/C(=O)OC)C[C@H](/C=C/C(C)(C)[C@]1(O)O2)O4)O3` [bryostatin 1], the effectiveness against leukemia result is on record as “particularly effective”.
